How the values were obtained:
CYP3A4 = target: T1, CYP3A4 (Homo sapiens, UniProt P08684); assay: Inhibition of CYP enzyme (CYP3A4, midazolam substrate, liver microsomes); assay type: in vitro ADME; conditions: for inhibition at 5 min, 1 μM: human, pH 7.4, midazolam (M) as probe substrate; for CYP3A4(M) inhibition rate/1 μM: midazolam (M) as probe substrate
T1 construct: from tissue; host or cells: liver microsomes
Protocol: Assay 3: Inhibition of CYP Enzyme
1. 0.1 M potassium phosphate buffer (K-buffer), pH 7.4 was preheated;
100 mM K-Buffer: 9.5 mL Stock A and 40.5 mL Stock B were mixed, brought to a total volume of 500 mL with Milli-Q water, and titrated to pH 7.4 of KOH or H3PO4;
Stock A (1 M monobasic potassium phosphate): 136.5 g of monobasic potassium phosphate was dissolved in 1 L of Milli-Q water; and
Stock B (1 M dibasic potassium phosphate): 174.2 g of dibasic potassium phosphate was dissolved in 1 L of Milli-Q water.
2. Serial dilutions of test compounds and reference inhibitors (400×) were prepared in a 96-well plate:
2.1 8 μL of 10 mM test compounds was transferred to 12 μL of ACN. 2.2 A separate inhibitor solution was prepared for reference: 8 μL of inhibitor DMSO stock was added with 12 μL of ACN.
2.3 A 1:3 serial dilution was prepared with a DMSO:ACN mixture (v/v: 40:60).
3. 4×NADPH cofactor (66.7 mg NADPH dissolved in 10 mL 0.1 M K-buffer, pH 7.4) was prepared.
4. 4× substrate (2 mL for each isoform) was prepared as indicated in the table below (Liver microsomes must be added on ice).
5. 0.2 mg/mL liver microsome solution (990 μL of 0.1 M K-buffer was added to each 10 μL of 20 mg/mL) was prepared on ice.
6. 200 μL of 0.2 mg/mL liver microsomes was added on ice to a 96-well plate and then 1 μL of test compound or reference compound was added into corresponding wells.
7. The following solutions were added to a 96-well plate (in duplicate) on ice:
7.1 30 μL of 2× test compounds and reference compound in 0.2 mg/mL liver microsome solution were added;
7.2 15 μL of 4× substrate solution was added.
8. The 96-well assay plate and NADPH solution were pre-heated at 37° C. for 5 minutes.
9. 15 μL of pre-heated 8 mM NADPH solution was added into the assay plates to initiate the reaction.
10. The 3A4 subtype was incubated at 37° C. for 5 min for.
11. The reaction was quenched by adding 120 μL of ACN containing an internal standard.
12. After quenching, the plates were shaked in a vibrator (IKA, MTS 2/4) for 5 min (600 rpm/min) and then centrifuged at 3, 750 rpm for 15 min (Allegra X-12R centrifuge).
13. After centrifugation, 50 μL of the supernatant from each well was taken into a 96-well plate containing 70 μL of wastons water and mixed for LC/MS analysis.

[1] = target: T2, hERG potassium ion channel (Homo sapiens, UniProt Q12809); assay: Inhibition of hERG potassium ion channel, manual whole-cell patch clamp in CHO hERG cells; assay type: cell-based; conditions: CHO cells stably expressing hERG
T2 construct: host or cells: CHO cells stably expressing hERG
T2 sequence (Q12809 whole entry): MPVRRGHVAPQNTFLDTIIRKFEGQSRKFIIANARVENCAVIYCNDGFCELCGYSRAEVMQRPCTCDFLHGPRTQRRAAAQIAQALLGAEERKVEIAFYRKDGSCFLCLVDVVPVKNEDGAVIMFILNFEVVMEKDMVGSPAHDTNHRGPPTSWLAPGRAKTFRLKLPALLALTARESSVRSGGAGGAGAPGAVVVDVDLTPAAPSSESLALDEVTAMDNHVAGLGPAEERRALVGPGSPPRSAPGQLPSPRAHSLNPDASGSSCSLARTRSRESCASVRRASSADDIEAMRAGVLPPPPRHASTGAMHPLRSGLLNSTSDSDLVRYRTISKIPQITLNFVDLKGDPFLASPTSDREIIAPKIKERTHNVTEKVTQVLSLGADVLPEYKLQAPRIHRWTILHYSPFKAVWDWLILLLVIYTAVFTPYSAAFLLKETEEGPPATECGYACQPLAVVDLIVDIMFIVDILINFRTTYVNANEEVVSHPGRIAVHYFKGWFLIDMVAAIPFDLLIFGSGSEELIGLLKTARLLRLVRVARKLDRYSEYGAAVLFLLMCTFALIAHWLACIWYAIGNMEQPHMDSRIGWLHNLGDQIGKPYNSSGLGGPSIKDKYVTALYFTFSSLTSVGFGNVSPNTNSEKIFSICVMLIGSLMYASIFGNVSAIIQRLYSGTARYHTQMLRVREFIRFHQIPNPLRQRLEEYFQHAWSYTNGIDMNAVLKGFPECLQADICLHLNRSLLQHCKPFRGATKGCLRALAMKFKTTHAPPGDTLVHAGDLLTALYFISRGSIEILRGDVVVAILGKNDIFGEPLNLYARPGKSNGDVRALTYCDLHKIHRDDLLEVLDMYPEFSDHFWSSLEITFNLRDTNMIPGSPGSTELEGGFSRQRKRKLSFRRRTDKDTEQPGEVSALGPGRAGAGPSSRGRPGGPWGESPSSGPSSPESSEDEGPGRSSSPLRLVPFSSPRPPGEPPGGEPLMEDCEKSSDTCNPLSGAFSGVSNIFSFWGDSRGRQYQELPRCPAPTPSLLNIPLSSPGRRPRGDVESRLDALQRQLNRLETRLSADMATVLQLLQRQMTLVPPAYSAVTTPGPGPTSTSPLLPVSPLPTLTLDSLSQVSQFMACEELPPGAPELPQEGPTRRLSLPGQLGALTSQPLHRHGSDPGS
Protocol: (§1) Assay 2: Inhibition of hERG Potassium Ion Channel
(§2) 2.1.1 Cells used in this experiment were CHO cell lines transfected with hERG cDNA and stably expressing hERG channels (supplied by Sophion Bioscience, Denmark), with cell progeny being P15. Cells were cultured in medium containing the following ingredients Invitrogen): Ham's F12 medium, 10% (v/v) inactivated fetal bovine serum, […] hygromycin B, and […] Geneticin.
(§3) 2.1.2 CHO hERG cells were grown in Petri dishes containing the above medium and cultured in an incubator of 5% CO2 at 37° C. CHO hERG cells were transferred onto round glass plates in Petri dishes and grown on the same culture medium and culture conditions as above 24 h to 48 h prior to the electrophysiological experiments. The density of CHO hERG cells on each round glass plate must meet the requirements that the vast majority of cells are independent and separate.
(§4) 2.2 Experimental Solution
(§5) The following solutions (recommended by Sophion) were used for electrophysiological recording. The reagents used in this test were provided by Sigma.
(§6) 2.3 Electrophysiological Recording System
(§7) In this experiment, whole-cell current recording was performed using a manual patch clamp system (HEKA EPC-10 signal amplification and digital conversion system, purchased from HEKA Electronic, Germany). The round glass slide of which surface CHO hERG cells were grown on was placed in an electrophysiological recording slot under an inverted microscope. Extracellular fluid was perfused continuously in the recording slot (approximately 1 ml per minute). Conventional whole-cell patch clamp current recording technique was used in the experiment. Unless otherwise specified, the experiments were performed at normal room temperature (25° C.). Cell patch clamp at −80 mV. Cell patch clamp voltage was depolarized to +20 mV to activate hERG potassium channel, and to −50 mV after 5 sec to eliminate inactivation and generate tail currents. The tail current peak was used as a value for hERG current. When the hERG potassium current recorded in the above steps became steady under continuous perfusion of the extracellular fluid in the recording slot, the subject drug to be tested could be added to the perfusion until the inhibition of the hERG current by the drug reached a steady state. Typically, the most recent three consecutive current recording lines were generally used as a measure to determine whether the state was stable. After reaching a steady state, it was perfused with extracellular fluid for washing until the hERG current returned to the value before the drug adding. One or more drugs, or multiple concentrations of the same drug, could be tested on a single cell but it was necessary to rinse with extracellular fluid before testing a different drug. Cisapride (purchased from Sigma) was used as a positive control in the experiments to ensure normal quality of the cells used.
(§8) 2.4 Treatment and Dilution of Compounds
(§9) The compound was first dissolved in DMSO to a concentration of 10 mM and then the compound was diluted 1000-fold to a final test concentration of 10 μM using extracellular fluid.
(§10) The final concentration of DMSO in the compound test solution was 0.1%. The test concentration of cisapride as a positive control was 0.1 μM. All stock solutions and test solutions were subjected to regular 5-10 minutes of sonication and shaking to ensure complete dissolution of the compound.
(§11) The test data were analyzed by the data analysis software provided by HEKA Patchmaster (V2x73.2), Microsoft Excel and Graphpad Prism 5.0.

hERG potassium channel = target: T3, hERG potassium channel (Homo sapiens, UniProt Q12809); assay: as above; assay type: cell-based; conditions: human, CHO cells stably expressing hERG
T3 construct: host or cells: CHO cells stably expressing hERG
T3 sequence (Q12809 whole entry): as above
Protocol: as §1, §2, §3, §4, §5, §6, §7, §8, §9, §10, §11

[2] = cited from earlier work
in vivo = conditions: male, SD, rat, 10 mg/kg, oral administration of dezocine in rats, Dezocine dosed at 10 mpk
Protocol: LC-MS/MS method was applied for the determination of the drug concentration in plasma at different times after the example compounds were administered via gavage to rats in order to study the pharmacokinetic behavior of the compounds of the disclosure in vivo in rats and evaluate their pharmacokinetic characteristics.
Test animals: healthy adult male SD rats (weight 200-300 g, 3, fasted), provided by SLAC company;
Administration and dosage: 16 mg/kg or 24 mg/kg, 10 mL/kg, 5% 1,2-propanediol (1,2-Propanediol, Shanghai Titan Technology Co., Ltd. Lot No.: P1057349)) was administered via oral gavage to SD rats;
Blood collection: firstly, the animals which were selected to meet the test requirements prior to administration were weighed and labelled. The rats were bound before the blood collection, about 150 μl of blood from each administered rat was taken at predetermined time points via orbital vein (blood was collected before administration and at 0.083, 0.25, 0.5, 1, 2, 4, 6, and 8 h after administration respectively, 9 time points in total). Blood was transferred to a 1.5 ml tube to which K2EDTA was added previously. The collected blood sample was put on wet ice, and centrifuged (2000 g, 5 min under 4° C.) to obtain plasma sample, the whole process of which was completed within 15 minutes after blood collection. All the samples were stored at approximately −70° C. until analysis. […]

T1 sequence (P08684 whole entry): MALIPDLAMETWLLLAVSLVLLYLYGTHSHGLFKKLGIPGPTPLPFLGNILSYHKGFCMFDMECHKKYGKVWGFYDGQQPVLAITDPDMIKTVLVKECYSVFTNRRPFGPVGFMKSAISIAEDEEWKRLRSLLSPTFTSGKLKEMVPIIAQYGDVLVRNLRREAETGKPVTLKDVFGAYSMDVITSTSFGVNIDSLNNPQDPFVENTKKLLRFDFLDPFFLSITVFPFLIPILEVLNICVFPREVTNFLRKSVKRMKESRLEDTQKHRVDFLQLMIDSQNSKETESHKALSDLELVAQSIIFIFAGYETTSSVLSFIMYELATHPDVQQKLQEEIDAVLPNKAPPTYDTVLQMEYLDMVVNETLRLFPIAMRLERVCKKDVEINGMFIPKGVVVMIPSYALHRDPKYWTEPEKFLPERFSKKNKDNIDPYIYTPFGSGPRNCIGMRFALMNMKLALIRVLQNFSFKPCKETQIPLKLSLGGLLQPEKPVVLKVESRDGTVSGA

| SMILES | hERG inhibition rate/10 μM [1] [%] | CYP3A4(M) inhibition rate/1 μM (CYP3A4) [%] | other results |
| --- | --- | --- | --- |
| COCCCNC(=O)Oc1ccc2c(c1)[C@@]1(C)CCCCC[C@@H](C2)[C@@H]1N [Compound Z-19] |  |  | inhibition at 5 min, 1 μM (CYP3A4): 33.6% |
| COc1ccc(NC(=O)Oc2ccc3c(c2)[C@@]2(C)CCCCC[C@@H](C3)[C@@H]2N)nc1 [Compound Z-119] | 78 |  |  |
| COC1CN(C(=O)Oc2ccc3c(c2)[C@@]2(C)CCCCC[C@@H](C3)[C@@H]2N)C1 [Compound Z-111] |  | 45.7 |  |
| CN(CC(=O)O)C(=O)Oc1ccc2c(c1)[C@@]1(C)CCCCC[C@@H](C2)[C@@H]1N [Compound Z-100] |  |  | inhibition at 5 min, 1 μM (CYP3A4): 1.6% |
| CN(C(=O)Oc1ccc2c(c1)[C@@]1(C)CCCCC[C@@H](C2)[C@@H]1N)C1COC1 [Compound Z-141] |  | 30.8 |  |
| C[C@@]12CCCCC[C@@H](Cc3ccc(OC(=O)NC4COC4)cc31)[C@@H]2N [Compound Z-117] | 20.59 | 23.8 |  |
| C[C@@]12CCCCC[C@@H](Cc3ccc(OC(=O)Nc4ccc(O)cc4)cc31)[C@@H]2N [Compound Z-23] |  |  | inhibition at 10 μM (hERG potassium channel): 71.5%; inhibition at 5 min, 1 μM (CYP3A4): 89.2% |
| C[C@@]12CCCCC[C@@H](Cc3ccc(OC(=O)N4CCC(CO)CC4)cc31)[C@@H]2N [Compound Z-128] |  | 41.9 |  |
| CC(=O)N1CCN(C(=O)Oc2ccc3c(c2)[C@@]2(C)CCCCC[C@@H](C3)[C@@H]2N)CC1 [Compound Z-125] |  | 18.1 |  |
| CCN(C(=O)Oc1ccc2c(c1)[C@@]1(C)CCCCC[C@@H](C2)[C@@H]1N)C1CCN(C)CC1 [Compound Z-131] | 39.88 | 26.7 |  |
| C[C@@]12CCCCC[C@@H](Cc3ccc(OC(=O)N4CCC(O)CC4)cc31)[C@@H]2N [Compound Z-124] |  | 19.6 |  |
| CC12CCCCCC(Cc3ccc(OC(=O)NC4CC(O)C4)cc31)C2N (stereo not drawn) [Compound Z-115] | 12.90 | 18.0 |  |
| CN1CCN(C(=O)Oc2ccc3c(c2)[C@@]2(C)CCCCC[C@@H](C3)[C@@H]2N)CC1 [Compound Z-2] |  |  | inhibition at 5 min, 1 μM (CYP3A4): 19.8% |
| C[C@@]12CCCCC[C@@H](Cc3ccc(OC(=O)N4CCC4)cc31)[C@@H]2N [Compound Z-137] |  | 45.3 |  |
| C[C@@]12CCCCC[C@@H](Cc3ccc(OC(=O)N4CCC(N5CCCCC5)CC4)cc31)[C@@H]2N [Compound Z-49] |  |  | inhibition at 10 μM (hERG potassium channel): 14.4%; inhibition at 5 min, 1 μM (CYP3A4): 7.28% |
| C[C@@]12CCCCC[C@@H](Cc3ccc(OC(=O)NCCO)cc31)[C@@H]2N [Compound Z-118] |  | 8.8 |  |
| COCCOCCN(C)C(=O)Oc1ccc2c(c1)[C@@]1(C)CCCCC[C@@H](C2)[C@@H]1N [Compound Z-14] |  |  | inhibition at 5 min, 1 μM (CYP3A4): 49.5% |
| C[C@@]12CCCCC[C@@H](Cc3ccc(O)cc31)[C@@H]2N [Dezocine, dezocine] |  |  | oral bioavailability [2]: ≤ 5%; AUC (in vivo): 58.6 ng·h/mL |

| SMILES | hERG inhibition rate/10 μM [1] [%] | CYP3A4(M) inhibition rate/1 μM (CYP3A4) [%] | other results |
| --- | --- | --- | --- |
| CC1CNCCN1C(=O)Oc1ccc2c(c1)C1(C)CCCCCC(C2)C1N (stereo not drawn) [Compound Z-129] |  | 4.0 |  |
| CCN(CCN(C)C)C(=O)Oc1ccc2c(c1)[C@@]1(C)CCCCC[C@@H](C2)[C@@H]1N [Compound Z-113] | 16.02 | 28.6 |  |
| C[C@@]12CCCCC[C@@H](Cc3ccc(OC(=O)N4CCC(C(=O)O)CC4)cc31)[C@@H]2N [Compound Z-130] | 3.24 | 13.0 |  |
| CN(C)CCNC(=O)Oc1ccc2c(c1)[C@@]1(C)CCCCC[C@@H](C2)[C@@H]1N [Compound Z-144] |  | 22.2 |  |
| C[C@@]12CCCCC[C@@H](Cc3ccc(OC(=O)NC4(CO)CC4)cc31)[C@@H]2N [Compound Z-122] | 1.91 | 17.0 |  |
| CN(CCO)C(=O)Oc1ccc2c(c1)[C@@]1(C)CCCCC[C@@H](C2)[C@@H]1N [Compound Z-127] | 9.95 | 17.4 |  |
| C[C@@]12CCCCC[C@@H](Cc3ccc(OC(=O)Nc4ccc(F)cc4)cc31)[C@@H]2N [Compound Z-35] |  |  | inhibition at 5 min, 1 μM (CYP3A4): 88.1% |
| CC(CO)NC(=O)Oc1ccc2c(c1)C1(C)CCCCCC(C2)C1N (stereo not drawn) [Compound Z-126] | 4.92 | 3.6 |  |
| C[C@@]12CCCCC[C@@H](Cc3ccc(OC(=O)N4CCC(N5CCOCC5)CC4)cc31)[C@@H]2N [Compound Z-109] | 17.20 | 6.6 |  |
| C[C@@]12CCCCC[C@@H](Cc3ccc(OC(=O)N4CCS(=O)(=O)CC4)cc31)[C@@H]2N [Compound Z-116] | 11.22 | 14.2 |  |
| CN1CCC(NC(=O)Oc2ccc3c(c2)[C@@]2(C)CCCCC[C@@H](C3)[C@@H]2N)CC1 [Compound Z-140] |  | 8.7 |  |
| C[C@@]12CCCCC[C@@H](Cc3ccc(OC(=O)NC(CO)CO)cc31)[C@@H]2N [Compound Z-138] |  | 0 |  |
| CC12CCCCCC(Cc3ccc(OC(=O)N4CCCC(C(=O)O)C4)cc31)C2N (stereo not drawn) [Compound Z-136] |  | 0 |  |
| CN(C)C1CCN(C(=O)Oc2ccc3c(c2)[C@@]2(C)CCCCC[C@@H](C3)[C@@H]2N)CC1 [Compound Z-123] | 8.84 | 0 |  |
| C[C@@]12CCCCC[C@@H](Cc3ccc(OC(=O)NC4CCOCC4)cc31)[C@@H]2N [Compound Z-110] | 13.32 | 28.0 |  |
| C[C@@]12CCCCC[C@@H](Cc3ccc(OC(=O)N4CC(O)C4)cc31)[C@@H]2N [Compound Z-114] | 17.07 | 11.8 |  |
| COC(=O)C1CCCN(C(=O)Oc2ccc3c(c2)C2(C)CCCCCC(C3)C2N)C1 (stereo not drawn) [Compound Z-135] |  | 21.3 |  |

Source: US10577346B2, “Benzobicycloalkane derivatives, their preparation and pharmaceutical use thereof” (priority 2016, dated 2020)
